From ChEMBL document CHEMBL1201862, “PubChem BioAssay data set” (2004) come the findings set out here.

One may read the EC50 as the concentration giving half of the maximal effect. Usually AC50 stands for the concentration at which the activity in the assay is half-maximal. What is called IC50 is the midpoint of a concentration-inhibition curve.

Experiment [1] addresses Peroxisome proliferator-activated receptor gamma/Nuclear receptor coactivator 1 (Homo sapiens, UniProt P37231). In kind it is functional.
Experiment [2] concerns the target Peroxisome proliferator-activated receptor gamma/Nuclear receptor coactivator 3 (Homo sapiens, UniProt P37231). In kind it is functional.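 Also: agonist potency for raising coactivator recruitment to the receptor.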
The target in experiment [3] is Peroxisome proliferator-activated receptor gamma/Nuclear receptor coactivator 2 (Homo sapiens, UniProt P37231). In kind it is functional.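 Also: agonist potency for raising coactivator recruitment to the receptor.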
Experiment [4] has as its target Potassium voltage-gated channel subfamily KQT member 2 (Rattus norvegicus, UniProt O88943, W236L). The experiment is described as follows: KCNQ2 channel potentiators, dose response, mechanism study for KCNQ2 potentiator project, cell-based, automated electrophysiology (AID 2603). In kind it is functional.
The target in a further experiment is T1, Protein RecA (Mycobacterium tuberculosis, UniProt P9WHJ3).
T1 sequence (P9WHJ3 whole entry): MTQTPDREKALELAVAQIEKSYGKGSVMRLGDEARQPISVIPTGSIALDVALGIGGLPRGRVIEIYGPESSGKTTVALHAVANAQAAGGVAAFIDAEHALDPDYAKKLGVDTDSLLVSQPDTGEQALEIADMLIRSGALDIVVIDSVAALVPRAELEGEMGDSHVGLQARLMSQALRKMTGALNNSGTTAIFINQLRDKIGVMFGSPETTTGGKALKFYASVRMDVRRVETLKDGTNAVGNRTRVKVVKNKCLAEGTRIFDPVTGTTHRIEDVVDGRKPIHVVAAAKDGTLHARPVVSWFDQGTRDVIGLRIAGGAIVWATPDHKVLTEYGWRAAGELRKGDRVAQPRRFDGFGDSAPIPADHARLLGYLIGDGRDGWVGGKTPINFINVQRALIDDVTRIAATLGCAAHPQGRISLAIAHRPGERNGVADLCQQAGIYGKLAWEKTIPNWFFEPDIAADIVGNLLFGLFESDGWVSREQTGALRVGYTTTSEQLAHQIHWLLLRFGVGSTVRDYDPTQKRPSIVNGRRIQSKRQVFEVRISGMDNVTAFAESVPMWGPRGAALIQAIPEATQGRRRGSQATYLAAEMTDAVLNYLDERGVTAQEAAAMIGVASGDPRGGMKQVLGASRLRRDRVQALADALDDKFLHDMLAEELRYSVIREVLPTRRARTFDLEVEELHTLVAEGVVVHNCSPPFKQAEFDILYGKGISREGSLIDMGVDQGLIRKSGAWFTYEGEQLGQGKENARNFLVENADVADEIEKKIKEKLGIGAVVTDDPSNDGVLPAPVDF
The experiment is described as follows: Fluorescence Cell-Free Homogeneous Dose Retest to Identify Inhibitors of RecA-Intein Splicing Activity. [Related pubchem assays (depositor defined):AID2097, AID2223, AID489010, AID492950]. In kind it is functional.

For experiment [5], the target named is T2, Replicative DNA helicase DnaB (Mycobacterium tuberculosis, UniProt P9WMR3).
T2 sequence (P9WMR3 whole entry): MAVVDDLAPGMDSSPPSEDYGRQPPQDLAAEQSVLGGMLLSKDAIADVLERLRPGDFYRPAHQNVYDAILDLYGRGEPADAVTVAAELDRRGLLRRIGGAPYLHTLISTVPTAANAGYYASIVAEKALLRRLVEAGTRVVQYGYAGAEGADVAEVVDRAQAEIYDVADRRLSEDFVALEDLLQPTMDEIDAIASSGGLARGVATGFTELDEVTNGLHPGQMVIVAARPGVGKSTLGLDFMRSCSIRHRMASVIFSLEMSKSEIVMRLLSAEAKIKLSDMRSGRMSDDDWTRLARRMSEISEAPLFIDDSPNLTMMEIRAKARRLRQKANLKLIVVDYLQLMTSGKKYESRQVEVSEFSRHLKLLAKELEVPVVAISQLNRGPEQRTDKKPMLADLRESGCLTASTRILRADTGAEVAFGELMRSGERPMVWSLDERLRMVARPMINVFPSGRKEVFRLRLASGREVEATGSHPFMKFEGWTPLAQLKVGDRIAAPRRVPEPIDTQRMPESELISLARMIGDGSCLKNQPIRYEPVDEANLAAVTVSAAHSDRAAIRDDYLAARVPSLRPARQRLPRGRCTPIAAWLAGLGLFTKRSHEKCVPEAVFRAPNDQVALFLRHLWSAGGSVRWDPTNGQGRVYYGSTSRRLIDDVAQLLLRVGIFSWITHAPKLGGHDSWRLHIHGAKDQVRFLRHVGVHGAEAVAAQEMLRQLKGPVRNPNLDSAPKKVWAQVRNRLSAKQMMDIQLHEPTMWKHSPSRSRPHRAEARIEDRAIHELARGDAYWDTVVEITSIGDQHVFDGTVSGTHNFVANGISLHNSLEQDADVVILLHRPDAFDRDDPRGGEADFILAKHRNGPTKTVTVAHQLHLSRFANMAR
The experiment is described as follows: DnaB intein splicing inhibitors, dose response, biochemical, cell-free fluorescence (AID 449749). In kind it is functional.

The next experiment addresses Genome polyprotein (dengue virus type 2, UniProt P29990). The experiment is described as follows: Dengue-2 NS5 methyltransferase inhibitors, primary screen, biochemical, confirmation dose response (AID 588689). In kind it is functional.
The next experiment addresses Aspartyl aminopeptidase (Plasmodium falciparum 3D7, UniProt Q8I2J3).
The target in a further experiment is Procathepsin L (Homo sapiens, UniProt P07711).
In experiment [6] the target is T3, Eukaryotic translation initiation factor 2-alpha kinase 3 (Homo sapiens, UniProt Q9NZJ5).
T3 sequence (Q9NZJ5 whole entry): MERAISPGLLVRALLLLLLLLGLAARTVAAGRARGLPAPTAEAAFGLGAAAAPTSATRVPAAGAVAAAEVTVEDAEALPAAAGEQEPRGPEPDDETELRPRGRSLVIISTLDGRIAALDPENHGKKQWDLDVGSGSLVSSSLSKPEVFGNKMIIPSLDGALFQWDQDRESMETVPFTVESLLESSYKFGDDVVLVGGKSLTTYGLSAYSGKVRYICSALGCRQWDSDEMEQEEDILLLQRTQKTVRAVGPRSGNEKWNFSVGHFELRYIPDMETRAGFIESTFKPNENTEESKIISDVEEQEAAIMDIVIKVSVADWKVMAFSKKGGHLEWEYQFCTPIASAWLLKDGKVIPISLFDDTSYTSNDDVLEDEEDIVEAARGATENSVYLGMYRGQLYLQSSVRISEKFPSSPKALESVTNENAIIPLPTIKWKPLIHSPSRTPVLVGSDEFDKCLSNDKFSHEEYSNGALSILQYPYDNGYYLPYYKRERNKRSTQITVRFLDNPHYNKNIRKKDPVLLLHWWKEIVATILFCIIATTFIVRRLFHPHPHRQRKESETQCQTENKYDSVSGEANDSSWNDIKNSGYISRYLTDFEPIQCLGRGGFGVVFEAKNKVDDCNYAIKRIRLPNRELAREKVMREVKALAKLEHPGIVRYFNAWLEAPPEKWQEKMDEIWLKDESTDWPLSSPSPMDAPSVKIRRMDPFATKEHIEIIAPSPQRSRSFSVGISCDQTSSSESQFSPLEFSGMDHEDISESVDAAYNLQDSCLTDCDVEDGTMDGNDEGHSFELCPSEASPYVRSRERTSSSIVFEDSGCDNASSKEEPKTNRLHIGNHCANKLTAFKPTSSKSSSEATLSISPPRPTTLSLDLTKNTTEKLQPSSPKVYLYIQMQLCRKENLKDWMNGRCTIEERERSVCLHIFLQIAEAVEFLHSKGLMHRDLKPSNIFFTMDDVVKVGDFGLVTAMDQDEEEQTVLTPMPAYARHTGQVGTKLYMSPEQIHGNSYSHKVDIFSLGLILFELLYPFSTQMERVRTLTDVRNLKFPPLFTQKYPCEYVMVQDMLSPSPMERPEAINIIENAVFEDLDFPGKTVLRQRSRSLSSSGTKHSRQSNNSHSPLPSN
The experiment in a line: Dose response cell-based high-throughput screening assay to measure PERK inhibition. [Related pubchem assays: 1416 ]. In kind it is functional.

The target in experiment [7] is T3, Eukaryotic translation initiation factor 2-alpha kinase 3. The experiment is described as follows: Counterscreen assay for PERK inhibitors: Dose response cell-based high throughput screening assay to measure inhibition of PERK at 6 hours. [Related pubchem assays: 1522, 1416 ]. In kind it is functional. Background: The purpose of a counterscreen is to sort out artefacts and off-target activity.

The target in experiment [8] is T4, Neuropeptide Y receptor type 1 (Homo sapiens, UniProt P25929).
T4 sequence (P25929 whole entry): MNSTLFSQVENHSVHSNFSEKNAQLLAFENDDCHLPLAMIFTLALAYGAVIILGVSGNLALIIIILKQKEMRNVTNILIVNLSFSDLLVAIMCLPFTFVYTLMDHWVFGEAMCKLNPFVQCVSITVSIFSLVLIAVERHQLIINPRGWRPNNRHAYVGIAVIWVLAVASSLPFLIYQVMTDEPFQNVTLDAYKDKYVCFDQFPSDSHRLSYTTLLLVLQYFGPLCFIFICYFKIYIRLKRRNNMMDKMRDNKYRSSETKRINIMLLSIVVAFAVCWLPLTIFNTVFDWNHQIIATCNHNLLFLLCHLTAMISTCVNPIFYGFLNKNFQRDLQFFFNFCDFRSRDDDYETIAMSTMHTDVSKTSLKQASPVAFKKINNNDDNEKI
The experiment is described as follows: NPY-Y1 receptor antagonist potency, dose response, cell-based (AID 1277). In kind it is functional.

Experiment [9] has as its target T5, Neuropeptide Y receptor type 2 (Homo sapiens, UniProt P49146).
T5 sequence (P49146 whole entry): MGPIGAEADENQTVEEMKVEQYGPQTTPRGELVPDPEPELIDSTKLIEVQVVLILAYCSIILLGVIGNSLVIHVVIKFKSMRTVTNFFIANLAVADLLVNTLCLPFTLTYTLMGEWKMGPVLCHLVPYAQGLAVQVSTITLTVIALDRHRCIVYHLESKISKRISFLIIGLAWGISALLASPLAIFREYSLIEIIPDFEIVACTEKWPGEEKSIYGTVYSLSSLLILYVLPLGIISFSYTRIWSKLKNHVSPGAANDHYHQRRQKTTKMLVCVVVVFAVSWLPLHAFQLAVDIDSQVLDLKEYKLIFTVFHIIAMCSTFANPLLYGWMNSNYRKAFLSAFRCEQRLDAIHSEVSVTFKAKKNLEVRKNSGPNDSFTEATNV
The experiment in a line: NPY-Y2 antagonist potency, selectivity check, dose response, counter-screen for NPY-Y1 antagonist project, cell-based (AID 1278). In kind it is functional.

The target in the next experiment is T6, CAAX prenyl protease 2 (Saccharomyces cerevisiae S288c, UniProt Q03530).
T6 sequence (Q03530 whole entry): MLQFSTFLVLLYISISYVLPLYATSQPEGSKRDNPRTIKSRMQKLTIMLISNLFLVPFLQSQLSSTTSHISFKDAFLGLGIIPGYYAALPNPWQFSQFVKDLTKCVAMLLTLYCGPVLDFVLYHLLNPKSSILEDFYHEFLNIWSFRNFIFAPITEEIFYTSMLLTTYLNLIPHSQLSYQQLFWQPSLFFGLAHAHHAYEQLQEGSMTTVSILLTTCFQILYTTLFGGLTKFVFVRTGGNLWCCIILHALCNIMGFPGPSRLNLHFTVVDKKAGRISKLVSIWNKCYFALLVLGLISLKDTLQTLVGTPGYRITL
In kind it is biochemical.

Experiment [10] is described as follows: Luminescence Cell-Based Dose Retest to Confirm Inhibitors of Cancer Stem Cells. [Related pubchem assays (depositor defined):AID2717, AID2721]. In kind it is functional. The following applies: Homo sapiens.
A further experiment concerns the target Trypsin (Sus scrofa, UniProt P00761). The experiment in a line: porcine trypsin inhibitors, dose response, selectivity assay for Rce1 protease inhibitor project, biochemical, quenched peptide fluorescence, cherry-pick (AID 488789).
Experiment [11] deals with Glyceraldehyde-3-phosphate dehydrogenase (Homo sapiens, UniProt P04406).

Calls of active or inactive are those of the source. A value given as a limit tells only on which side of the number the result lay.

Chain of Aspartyl aminopeptidase (Q8I2J3 whole entry): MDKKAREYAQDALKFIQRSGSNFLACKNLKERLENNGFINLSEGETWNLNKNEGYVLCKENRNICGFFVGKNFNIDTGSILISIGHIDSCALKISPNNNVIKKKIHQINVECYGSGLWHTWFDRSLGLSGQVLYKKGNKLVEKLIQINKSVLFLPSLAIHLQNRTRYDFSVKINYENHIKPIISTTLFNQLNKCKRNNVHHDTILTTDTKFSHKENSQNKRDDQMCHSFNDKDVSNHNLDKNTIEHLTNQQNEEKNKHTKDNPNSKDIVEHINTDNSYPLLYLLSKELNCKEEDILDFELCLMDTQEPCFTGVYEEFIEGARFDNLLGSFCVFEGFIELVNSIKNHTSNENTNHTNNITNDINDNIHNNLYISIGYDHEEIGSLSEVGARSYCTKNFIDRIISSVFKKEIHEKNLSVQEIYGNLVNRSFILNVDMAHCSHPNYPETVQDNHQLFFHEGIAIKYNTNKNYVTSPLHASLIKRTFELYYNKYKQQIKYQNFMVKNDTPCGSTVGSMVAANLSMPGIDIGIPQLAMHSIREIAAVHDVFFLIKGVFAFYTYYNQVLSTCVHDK
Chain of Peroxisome proliferator-activated receptor gamma/Nuclear receptor coactivator 2 (P37231 whole entry): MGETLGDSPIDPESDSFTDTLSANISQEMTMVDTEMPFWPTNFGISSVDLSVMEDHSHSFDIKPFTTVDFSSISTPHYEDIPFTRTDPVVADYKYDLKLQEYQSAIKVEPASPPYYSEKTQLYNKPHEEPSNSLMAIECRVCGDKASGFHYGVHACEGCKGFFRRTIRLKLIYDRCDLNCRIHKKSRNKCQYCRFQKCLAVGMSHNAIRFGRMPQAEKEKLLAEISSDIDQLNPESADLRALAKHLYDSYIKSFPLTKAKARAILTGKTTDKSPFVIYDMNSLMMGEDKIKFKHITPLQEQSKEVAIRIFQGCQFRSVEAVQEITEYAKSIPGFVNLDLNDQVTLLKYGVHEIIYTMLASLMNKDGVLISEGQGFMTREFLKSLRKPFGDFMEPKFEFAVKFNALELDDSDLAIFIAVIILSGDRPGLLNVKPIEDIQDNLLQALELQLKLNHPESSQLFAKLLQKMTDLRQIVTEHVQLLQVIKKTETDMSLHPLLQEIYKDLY
Chain of Peroxisome proliferator-activated receptor gamma/Nuclear receptor coactivator 2 (Q15596 whole entry, further chain): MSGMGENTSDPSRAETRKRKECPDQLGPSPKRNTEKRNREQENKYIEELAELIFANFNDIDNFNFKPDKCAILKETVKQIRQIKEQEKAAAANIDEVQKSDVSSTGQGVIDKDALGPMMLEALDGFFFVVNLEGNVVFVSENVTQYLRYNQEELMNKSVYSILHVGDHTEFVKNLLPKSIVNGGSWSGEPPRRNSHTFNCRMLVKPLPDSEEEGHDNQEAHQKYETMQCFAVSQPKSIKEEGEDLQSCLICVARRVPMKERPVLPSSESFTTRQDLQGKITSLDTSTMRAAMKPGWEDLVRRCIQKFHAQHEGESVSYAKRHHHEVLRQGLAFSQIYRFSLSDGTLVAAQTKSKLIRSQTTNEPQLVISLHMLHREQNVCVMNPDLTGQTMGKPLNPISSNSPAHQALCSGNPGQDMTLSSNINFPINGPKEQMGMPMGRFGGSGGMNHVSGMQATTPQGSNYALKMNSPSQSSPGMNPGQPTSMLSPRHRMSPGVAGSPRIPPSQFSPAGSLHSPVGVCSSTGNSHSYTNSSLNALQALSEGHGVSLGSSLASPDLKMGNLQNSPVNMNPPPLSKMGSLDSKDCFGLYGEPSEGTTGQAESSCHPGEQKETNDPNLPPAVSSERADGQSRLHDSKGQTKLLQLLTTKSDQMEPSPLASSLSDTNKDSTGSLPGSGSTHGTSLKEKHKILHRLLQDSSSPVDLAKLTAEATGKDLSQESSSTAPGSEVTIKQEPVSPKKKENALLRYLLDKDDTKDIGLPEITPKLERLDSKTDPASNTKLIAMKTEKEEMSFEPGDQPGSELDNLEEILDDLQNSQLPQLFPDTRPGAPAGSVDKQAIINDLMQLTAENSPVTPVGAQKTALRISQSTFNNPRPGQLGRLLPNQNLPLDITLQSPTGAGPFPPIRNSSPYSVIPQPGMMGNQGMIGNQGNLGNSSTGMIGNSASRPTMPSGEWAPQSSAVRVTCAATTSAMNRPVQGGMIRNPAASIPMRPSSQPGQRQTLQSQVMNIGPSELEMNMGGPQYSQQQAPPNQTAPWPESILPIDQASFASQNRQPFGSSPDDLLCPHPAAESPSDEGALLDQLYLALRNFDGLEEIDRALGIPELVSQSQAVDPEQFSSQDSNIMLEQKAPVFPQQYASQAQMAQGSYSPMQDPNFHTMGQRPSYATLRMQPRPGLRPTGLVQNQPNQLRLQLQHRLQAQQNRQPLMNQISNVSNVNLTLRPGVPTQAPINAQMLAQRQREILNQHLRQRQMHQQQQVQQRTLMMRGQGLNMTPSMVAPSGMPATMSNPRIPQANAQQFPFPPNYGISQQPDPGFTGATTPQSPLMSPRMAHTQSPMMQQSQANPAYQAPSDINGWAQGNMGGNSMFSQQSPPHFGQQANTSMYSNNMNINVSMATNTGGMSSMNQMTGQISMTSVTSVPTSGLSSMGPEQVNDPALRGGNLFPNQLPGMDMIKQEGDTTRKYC
Chain of Peroxisome proliferator-activated receptor gamma/Nuclear receptor coactivator 3 (P37231 whole entry): as the sequence (P37231 whole entry) above
Chain of Peroxisome proliferator-activated receptor gamma/Nuclear receptor coactivator 3 (Q9Y6Q9 whole entry, further chain): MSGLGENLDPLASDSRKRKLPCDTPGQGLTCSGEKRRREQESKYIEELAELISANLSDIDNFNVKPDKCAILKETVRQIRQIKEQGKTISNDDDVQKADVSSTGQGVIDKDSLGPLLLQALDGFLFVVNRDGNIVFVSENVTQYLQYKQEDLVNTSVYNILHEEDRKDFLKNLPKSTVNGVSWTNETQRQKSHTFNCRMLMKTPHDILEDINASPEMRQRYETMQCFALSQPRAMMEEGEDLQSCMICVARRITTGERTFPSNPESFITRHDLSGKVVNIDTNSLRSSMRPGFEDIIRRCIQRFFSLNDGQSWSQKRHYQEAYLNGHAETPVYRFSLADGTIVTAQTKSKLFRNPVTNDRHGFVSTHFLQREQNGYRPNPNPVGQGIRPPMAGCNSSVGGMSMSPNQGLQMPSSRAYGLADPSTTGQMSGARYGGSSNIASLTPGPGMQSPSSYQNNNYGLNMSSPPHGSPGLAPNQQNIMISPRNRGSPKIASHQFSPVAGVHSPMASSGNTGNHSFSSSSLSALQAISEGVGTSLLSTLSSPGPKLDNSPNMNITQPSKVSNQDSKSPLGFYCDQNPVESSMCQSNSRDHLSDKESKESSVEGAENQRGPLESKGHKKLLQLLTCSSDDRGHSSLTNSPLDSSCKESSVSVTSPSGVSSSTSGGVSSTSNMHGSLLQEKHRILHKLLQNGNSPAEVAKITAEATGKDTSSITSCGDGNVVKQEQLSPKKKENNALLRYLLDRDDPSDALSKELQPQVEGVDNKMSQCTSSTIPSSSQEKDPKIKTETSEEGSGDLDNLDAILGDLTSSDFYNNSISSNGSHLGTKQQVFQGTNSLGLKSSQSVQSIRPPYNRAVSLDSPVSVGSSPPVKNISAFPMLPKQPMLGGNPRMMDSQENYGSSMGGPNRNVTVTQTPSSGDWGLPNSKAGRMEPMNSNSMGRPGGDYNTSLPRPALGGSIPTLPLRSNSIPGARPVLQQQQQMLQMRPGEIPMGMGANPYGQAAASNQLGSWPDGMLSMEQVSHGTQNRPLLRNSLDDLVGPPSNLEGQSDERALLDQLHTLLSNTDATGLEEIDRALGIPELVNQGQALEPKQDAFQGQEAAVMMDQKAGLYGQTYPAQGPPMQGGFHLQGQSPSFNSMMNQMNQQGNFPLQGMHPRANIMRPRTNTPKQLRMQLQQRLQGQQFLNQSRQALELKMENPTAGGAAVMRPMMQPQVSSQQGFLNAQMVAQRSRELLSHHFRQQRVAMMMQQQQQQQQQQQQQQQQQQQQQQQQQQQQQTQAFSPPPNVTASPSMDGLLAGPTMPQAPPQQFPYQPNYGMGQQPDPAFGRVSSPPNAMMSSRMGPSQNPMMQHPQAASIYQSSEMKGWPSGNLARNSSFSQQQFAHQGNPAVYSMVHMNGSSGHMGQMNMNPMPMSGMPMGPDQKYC
Chain of Procathepsin L (P07711 whole entry): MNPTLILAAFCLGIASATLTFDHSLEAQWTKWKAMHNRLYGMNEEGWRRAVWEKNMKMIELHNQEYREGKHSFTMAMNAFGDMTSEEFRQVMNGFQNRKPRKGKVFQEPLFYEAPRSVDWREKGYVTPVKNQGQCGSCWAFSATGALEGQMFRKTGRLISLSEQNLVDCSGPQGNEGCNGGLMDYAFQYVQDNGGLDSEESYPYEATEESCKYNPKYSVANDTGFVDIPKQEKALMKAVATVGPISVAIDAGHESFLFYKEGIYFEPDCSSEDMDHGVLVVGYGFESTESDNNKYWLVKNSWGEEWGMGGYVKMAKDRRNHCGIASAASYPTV
Chain of Trypsin (P00761 whole entry): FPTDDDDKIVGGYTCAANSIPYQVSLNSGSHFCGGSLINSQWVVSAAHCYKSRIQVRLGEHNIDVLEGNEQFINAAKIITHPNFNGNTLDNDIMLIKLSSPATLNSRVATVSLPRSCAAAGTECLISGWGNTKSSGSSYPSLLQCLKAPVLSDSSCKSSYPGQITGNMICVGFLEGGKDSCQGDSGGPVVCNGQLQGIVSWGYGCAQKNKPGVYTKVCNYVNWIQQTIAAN

In the case of `O=c1cc(Cn2ccnc2)c2cc3c(cc2o1)CCC3`, the concentration for a half-maximal effect (EC50) in [1], in [2] and in experiment [3] was > 79.4 µM (not active) throughout.
For the compound `Cc1oc2cc([N+](=O)[O-])c(O)c([N+](=O)[O-])c2c1C(=O)c1ccc(Cl)cc1`, the EC50 in experiment [4] is 555 µM (active); on Protein RecA it was 10.4 µM (active). The AC50 in experiment [5] is 4.12 µM (active). Besides, at Genome polyprotein, the IC50 was 61.9 µM (active).
In the case of `CCOC(=O)C1=C(CS(=O)(=O)c2ccc(F)cc2)NC(=O)NC1c1ccc(O)c(O)c1` (stereo unspecified), the IC50 on Aspartyl aminopeptidase was 1.52 µM (active); against Procathepsin L, > 59.6 µM (not active).
In the case of `C/N=C1\SC(CC(=O)Nc2ccccc2F)C(=O)N1C` (stereo unspecified), the EC50 in experiment [6] and in experiment [7] was > 55.7 µM (not active) throughout.
Regarding `CC(C)(C)c1ccc(C(=O)Oc2ccccc2CCC(=O)O)cc1`, the EC50 in experiment [6] and in experiment [7] was > 55.7 µM (not active) in each case.
In the case of `CCCCC(O)(CCCC)C(=O)NN(C(=O)OC)c1ccccc1`, the IC50 in experiment [8] and in [9] was > 35 µM (not active) throughout.
For the compound `O=C(CCSCc1ccccc1Cl)NCc1cccs1`, the concentration giving a half-maximal response (EC50) in [1], in experiment [2] and in [3] was > 79.4 µM (not active) each time.
Consider `Cc1nc(N2CCCCC2)c2c(C)c(C(=O)Nc3ccccc3C(F)(F)F)sc2n1`, for which the figures for the AC50 (at CAAX prenyl protease 2; in [10]; on Trypsin) were 13.4 µM (active), 2.18 µM (active) and > 100 µM (inactive), respectively. Further, the half-inhibitory concentration (IC50) in experiment [8] was 7.1 µM (active); in [9], 6.66 µM (active).
Take `COc1cccc(N2C(=O)C(Cl)=C(N(C)C)C2=O)c1`: the IC50 in experiment [11] is > 50 µM (inconclusive).
Turning to `c1ccc(NCn2cncn2)nc1`, the IC50 is 2.56 µM (active) on Aspartyl aminopeptidase and > 59.6 µM (not active) on Procathepsin L.
